Measured values as given in US12370181B2, “Regimens of estrogen receptor antagonists” (Olema Pharmaceuticals, Inc., priority 2019, dated 2025).

Tests used:
[1] = system: ligand-independent ER mutants; assay: AP activity in Ishikawa cells transiently transfected with ER variants; assay type: cell-based, human; settings: in the absence of E2; 3 days; FIGS. 5A-5F, 8A-8D
Procedure: (§1) The present Example describes studies in which certain estrogen receptor constructs were transfected into Ishikawa cells, which are a human endometrial cancer cell line, endogenous alkaline phosphatase is assayed. 15,000 Ishikawa cells per well were plated into a 96-well plate in […] containing 5% stripped FBS. At the time of plating, cells in each well were transiently transfected with 75-100 ng of an estrogen receptor construct (or empty vector, pSG5) using Lipofectamine LTX (ThermoFisher Scientific). Approximately 4 hours later, cells were treated with indicated amount of anti-estrogen (in the absence of E2), or 500 pM E2 (FIG. 9), and media was diluted to 2.5% stripped FBS. Cells were incubated for 3 days, media removed, and plates frozen at −80° C. […] After 40-80 minutes at 40° C., absorbance was read at 405 nm.

endogenous wild type ER = target: T1, endogenous wild type ER (Homo sapiens, UniProt P03372); assay: Alkaline phosphatase (AP) activity of endogenous wild type ER in un-transfected Ishikawa cells, agonist and antagonist mode; assay type: cell-based
T1 construct: AP activity of endogenous wild type ER in un-transfected Ishikawa cells; endogenous in cells; host or cells: Ishikawa cells (un-transfected)
T1 sequence (P03372 1-595): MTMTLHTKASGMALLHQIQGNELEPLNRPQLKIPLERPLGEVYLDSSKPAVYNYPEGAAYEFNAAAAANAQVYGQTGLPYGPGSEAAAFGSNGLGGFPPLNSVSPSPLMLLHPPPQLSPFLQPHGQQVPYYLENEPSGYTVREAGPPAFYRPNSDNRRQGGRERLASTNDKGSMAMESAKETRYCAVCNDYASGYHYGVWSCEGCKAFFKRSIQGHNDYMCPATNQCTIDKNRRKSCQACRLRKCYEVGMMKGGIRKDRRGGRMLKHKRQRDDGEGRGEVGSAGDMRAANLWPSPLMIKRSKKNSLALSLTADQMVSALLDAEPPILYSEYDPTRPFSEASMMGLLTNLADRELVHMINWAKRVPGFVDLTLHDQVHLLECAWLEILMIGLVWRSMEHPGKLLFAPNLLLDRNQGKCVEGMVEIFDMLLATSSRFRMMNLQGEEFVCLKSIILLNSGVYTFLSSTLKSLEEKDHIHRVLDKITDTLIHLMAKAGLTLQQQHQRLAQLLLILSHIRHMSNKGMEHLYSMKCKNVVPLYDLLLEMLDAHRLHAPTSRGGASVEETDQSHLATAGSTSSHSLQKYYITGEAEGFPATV
Procedure: as §1
AP activity of endogenous wild type ER in un-transfected Ishikawa cells was assayed as described above.

[2] = in vivo, po, 300 mg/kg

SMILES	Inhibition of activity of ligand-independent ER mutants (AP activity) [1]	Agonist activity (ER activity, AP) (endogenous wild type ER; agonist mode: compound alone, no added estrogen, FIG. 1A)	Antagonist activity (ER activity, AP) (endogenous wild type ER; antagonist mode: in the presence of 500 pM 17β-estradiol (E2), FIG. 1B)	Blood brain barrier penetration [2]
CC/C(=C(/c1ccc(/C=C/C(=O)O)cc1)c1ccc2[nH]ncc2c1)c1ccc(F)cc1Cl [ARN-810, Brilanestrant]	none of Endoxifen, RAD-1901, ARN-810 (GDC-0810) or AZD-9496 can inhibit activity of the ligand-independent ER variants			
C[C@@H]1Cc2c([nH]c3ccccc23)[C@@H](c2c(F)cc(/C=C/C(=O)O)cc2F)N1CC(C)(C)F [AZD-9496]	none of Endoxifen, RAD-1901, ARN-810 (GDC-0810) or AZD-9496 can inhibit activity of the ligand-independent ER variants	increases ER activity in the absence of added estrogen	reducing ER activity when estrogen is there	
C[C@]12CC[C@@H]3c4ccc(O)cc4C[C@@H](CCCCCCCCC[S+]([O-])CCCC(F)(F)C(F)(F)F)[C@H]3[C@@H]1CC[C@@H]2O (stereo partly drawn) [Fulvestrant]				unable to penetrate the blood-brain barrier in analogous quantities
CCNCCc1ccc(CN(CC)c2cc(OC)ccc2[C@@H]2CCc3cc(O)ccc3C2)cc1 [RAD-1901, Elacestrant]	none of Endoxifen, RAD-1901, ARN-810 (GDC-0810) or AZD-9496 can inhibit activity of the ligand-independent ER variants			
